# Data reported in patent US6716867B1, “Use of dexmedetomidine for ICU sedation” (priority 1998, dated 2004).
# Values joined by “and” are separate entries in the source; they are usually repeats but may differ in a detail not shown here. Equal entries are not always repeated. Where two headings read alike, the source gives them in different places.
# Legend:
# [1] = tested on: postoperative CABG patients requiring mechanical ventilation in the ICU
# Description: A double-blind, randomized, placebo-controlled study was conducted to evaluate the efficacy, safety, and titratability of dexmedetomidine in mechanically ventilated patients requiring sedation in the ICU. […] Twelve adult postoperative CABG patients requiring mechanical ventilation in the ICU who met the study selection criteria were eligible for participation.
# The selection criteria were as follows. The patients required sedation for mechanical ventilation for a minimum of 8 hours following surgery, followed by continued sedation for 6 hours after extubation. The patients were not to have been intubated longer than 24 hours to be evaluable for the test. The patients received only morphine for management for pain and received none of the following medications during study drug administration: sedating agents other than midazolam, neuromuscular blocking agents except for insertion of the endotrachael tube, epidural or spinal analgesic/anesthetic agents.
# Safety was evaluated through the monitoring of adverse events, cardiac monitoring, laboratory tests, vital signs, oxygen saturation, and concomitant medications.
# Twelve patients were randomly assigned to receive either dexmedetomidine or placebo with rescue treatment for sedation with midazolam, as clinically indicated. Patients randomized to dexmedetomidine were to receive a 10-minute loading dose of 6.0 μg/kg/h, followed by an initial maintenance infusion. The rate of maintenance infusion was 0.4 μg/kg/h. The maintenance rate of infusion could be titrated in increments of 0.1 μg/kg/h to achieve and maintain a Ramsey Sedation Score of 3 or higher. The range for the maintenance infusion was to be kept between 0.2 and 0.7 μg/kg/h. Dexmedetomidine administration was to begin within one hour after admission to the ICU and continued until 6 hours after extubation. […] The placebo was 0.9% sodium chloride solution administered the same way dexmedetomidine was administered.
# [2] = tested on: ICU patients; experiment: Phase III multicenter ICU sedation trial, Trial 1 (propofol and morphine as rescue); settings: for dexmedetomidine-treated patients who died: none considered related to dexmedetomidine
# From the text: (§1) Two Phase III dexmedetomidine multicenter clinical trials (Trial 1 and Trial 2) have been conducted in ICU sedation in Europe and Canada. Each trial had two parts, i.e., an open-label part (Part I) and double-blind, randomized, placebo-controlled part (Part II). The trials were designed to evaluate the reduction in requirements for ICU sedation (as measured by administration of other sedative/analgesic agents) in patients receiving dexmedetomidine. The use of propofol and morphine for sedation and analgesia, respectively, was evaluated in one trial (Trial 1), and midazolam and morphine in the other trial (Trial 2).
# (§2) In Part I of the trials patients were to be administered a 6.0 μg/kg/h loading dose of dexmedetomidine over a 10-minute period, followed by an initial maintenance infusion of 0.4 μg/kg/h. During Part II of the study, patients were randomly assigned to receive either placebo (0.9% sodium chloride solution) or dexmedetomidine. […] The dexmedetomidine dosing protocol was the same as in the Part I of the study. […] Following extubation, the infusion rate was to be adjusted to achieve a Ramsay Sedation Score of 2 or higher.
# (§3) During the 10-minute loading dose, additional medication was to be avoided, but propofol (0.2-mg/kg bolus) in Trial 1 and midazolam (1-mg bolus) in Trial 2 could be given if necessary. During dexmedetomidine infusion, rescue medications were limited to propofol (0.2 mg/kg IV boluses) in Trial 1 and midazolam ([…]) in Trial 2 for sedation and morphine for pain (2-mg IV boluses). After extubation, paracetamol was to be permitted for pain as clinically indicated. Propofol and midazolam were to be given only after increasing the dexmedetomidine infusion rate. Dexmedetomidine administration in Parts I and II was to begin within 1 hour of admission to the ICU and to be continued for 6 hours after extubation to a maximum of 24 hours total study drug infusion. Patients were observed and assessed for an additional 24 hours after cessation of dexmedetomidine.
# [3] = tested on: ICU patients; experiment: Phase III multicenter ICU sedation trial, Trial 2 (midazolam and morphine as rescue)
# From the text: as §1, §2, §3
# [4] = tested on: postsurgical ICU patients
# From the text: as §1, §2, §3
# The following 16 cases are from the above mentioned Part II of trials 1 and 2.
# [5] = tested on: postoperative coronary artery bypass graft(s) patients (CABG), requiring sedation in the ICU
# [6] = case 4, immediately after extubation
smiles,measurement,setting,value
"Cc1cccc([C@H](C)c2c[nH]cn2)c1C [dexmedetomidine, (+)-(S)-4-[1-(2,3-dimethylphenyl)ethyl]-1H-imidazole]","midazolam for sedation or morphine for pain required, vs placebo","[1]; human, in vivo",significantly less
same,respiratory depression,"[1]; human, in vivo",no clinically apparent respiratory depression
same,safety and tolerability,"[1]; human, in vivo",safe and well tolerated
same,need for midazolam rescue for sedation,"[1]; six dexmedetomidine-sedated patients, difference to placebo in mean total midazolam dose p=0.010",did not require any midazolam
same,patients who required morphine for management of pain,"[1]; vs five of six on placebo, mean total morphine dose difference p=0.040",One of six
same,"morphine required for pain, vs placebo",[2]; Trial 1,significantly less
same,"propofol required for sedation, vs placebo",[2]; Trial 1,significantly less
same,dexmedetomidine-treated patients who died,"[2]; Trial 1, Part I",three
same,dexmedetomidine-treated patients who died,"[2]; Trial 1, Part II, one placebo-treated patient died",three
same,speed of achieving sedation levels,"[2]; Trial 1, vs placebo-treated patients who received propofol",more quickly
same,"changes in systolic blood pressure, diastolic blood pressure and heart rate",[2]; in vivo,consistent with the known pharmacological effect of α2-agonists
same,respiratory depression,[2]; in vivo,no clinically apparent respiratory depression
same,safety and tolerability,[2]; in vivo,safe and well tolerated
same,"midazolam required for sedation, vs placebo",[3]; Trial 2,significantly less
same,"morphine required for pain, vs placebo",[3]; Trial 2,significantly less
same,deaths among dexmedetomidine-treated patients,"[3]; Trial 2, Part I and Part II, five placebo-treated patients died",No deaths
same,speed of achieving sedation levels,"[3]; Trial 2, vs placebo-treated patients who received midazolam",more quickly
same,"changes in systolic blood pressure, diastolic blood pressure and heart rate",[3]; in vivo,consistent with the known pharmacological effect of α2-agonists
same,respiratory depression,[3]; in vivo,no clinically apparent respiratory depression
same,safety and tolerability,[3]; in vivo,safe and well tolerated
same,morphine doses required while receiving dexmedetomidine,"[4]; case 1, 5 minutes before extubation",one
same,Ramsay Sedation Score,"[4]; case 1, after the first hour",3
same,Ramsay Sedation Score,"[4]; case 1, during the first hour",6
same,Ramsay Sedation Score,"[4]; case 1, later",2
same,analgesic requirement,"[4]; case 2, during the 12-hour infusion 0.2 to 0.7 μg/kg/h",required no morphine or other analgesic
same,Ramsay Sedation Score,"[4]; case 3, after the first hour",4
same,Ramsay Sedation Score,"[4]; case 3, during the first hour (baseline score, fully anaesthetized after surgery)",6
same,midazolam and morphine requirement,"[4]; case 3, maintenance 0.2 to 0.3 μg/kg/h",required no midazolam or morphine
same,Ramsay Sedation Score,"[4]; case 3, subsequently",3
same,midazolam required,[4]; [6],2 mg
same,morphine required,[4]; [6],2 mg
same,morphine dose required,"[4]; case 5, after dexmedetomidine infusion was discontinued",76 mg
same,midazolam dose received,"[4]; case 5, at 46 minutes and again at 66 minutes after start of infusion",2 mg
same,initial postoperative morphine requirements,"[4]; case 5, during dexmedetomidine infusion",24 mg
same,morphine requirement while on dexmedetomidine,[4]; case 6,required no morphine
same,morphine required,"[4]; case 6, after extubation and cessation of infusion, before discharge from the ICU",4 mg
same,"midazolam administered, total","[4]; case 6, agitation over endotracheal tube at maximum allowable dose",16 mg
same,morphine required,"[4]; case 6, first few hours after return to the ward",~50 mg
same,morphine and midazolam requirement,"[4]; case 6, first hours of infusion",required no morphine or midazolam
same,Ramsey Sedation Score,"[4]; case 6, maintenance 0.4 to 0.7 μg/kg/h",approximately 4
same,Ramsey Sedation Score,"[4]; case 7, 0.4 titrated to 0.7 μg/kg/h",approximately 4
same,morphine requirements,"[4]; case 7, first 6 hours in the ICU, graft failure with ongoing bleeding",fluctuated markedly
same,propofol and morphine requirement,"[4]; case 8, after propofol discontinued at 3 hours, dexmedetomidine tapered to 0.2 μg/kg/h",No additional propofol or morphine was required
same,Ramsey Sedation Score,"[4]; case 8, dexmedetomidine 0.7 μg/kg/h with propofol 4 mg/kg/h, oversedated",6
same,Ramsey Sedation Score,"[4]; case 9, while receiving dexmedetomidine",3
same,additional sedative and analgesia requirement,"[4]; case 10, during the infusion",required no additional sedatives and very little analgesia
same,Ramsey Sedation Score,"[4]; case 10, intubated, infusion 0.4-0.7 μg/kg/h",4
same,additional sedative requirement,"[4]; case 11, history of excessive alcohol intake, infusion between 0.3 and 0.7 μ/kg/h",no additional sedatives were required
same,anxiolysis and orientation,"[4]; case 12, high preoperative anxiety, infusion 0.2-0.5 μg/kg/h","calm, had no fear or apprehension, and was well oriented"
same,achievement of desired level of sedation,"[4]; case 13, FIG. 2",very easily achieved with little dose adjustment
same,morphine sulfate required (single dose),"[4]; case 13, at 6 hours into the study period",2 mg
same,opiate requirement,"[4]; case 14, before extubation",no opiate was required
same,Ramsey Sedation Score,"[4]; case 14, first half hour",6
same,morphine required (single injection),"[4]; case 14, moderate pain after extubation",2 mg
same,Ramsey Sedation Score,"[4]; case 14, remainder of ICU stay after titration (score of 2 or 3)",2 and 3
same,Ramsey Sedation Score,"[4]; case 15, infusion titrated",approximately 3
same,PaCO2,[4]; in vivo,stable
same,blood pressure,[4]; in vivo,transient increase
same,blood pressure (hypotension),[4]; in vivo,70/40
same,haemodynamic instability,[4]; in vivo,No evidence of haemodynamic instability
same,hemodynamic profile,[4]; in vivo,smooth without hypotension or episodes of bradycardia
same,hypotension,[4]; in vivo,one episode of moderate hypotension
same,respiratory depressant effect,[4]; in vivo,absence of a respiratory depressant effect
same,respiratory depression,[4]; in vivo,no respiratory depression
same,patients who required morphine for pain,"[5]; 12 patients, infusion 0.2 to 0.7 μg/kg/h",Two
same,patients with serious adverse events,"[5]; 12 patients, circulatory failure and myocardial infarction, infarction had little or no temporal relationship to dexmedetomidine",One
same,quality of sedation,[5]; dexmedetomidine as only pharmaceutical,"conveniently sedated, hemodynamically stable, and remained easily arousable"
same,blood pressure and heart rate variability,[5]; during administration of dexmedetomidine,decreased
same,time until clinical effects of sedation became evident,"[5]; iv loading 6 μg/kg/h over 10 min, then maintenance 0.2 or 0.4 μg/kg/h",15 to 30 min
